Results as given in ChEMBL document CHEMBL4011583, “Enhancing activity and selectivity in a series of pyrrol-1-yl-1-hydroxypyrazole-based aldose reductase inhibitors: The case of trifluoroacetylation” (Eur J Med Chem, 2017).

Experiments:
[1] = Inhibition of Fischer-344 rat lens ALR2
[2] = organism: Rattus norvegicus; test: Selectivity index, ratio of IC50 for Wistar rat kidney ALR1 to IC50 for Wistar rat lens ALR2
[3] = target: Aldo-keto reductase family 1 member A1 (Rattus norvegicus, UniProt P51635); test: Inhibition of Wistar rat kidney ALR1 assessed as reduction in NADPH oxidation using D-glycuronate as substrate by UV-visible spectrophotometric method
Sequence of Aldo-keto reductase family 1 member A1 (P51635 whole entry, looked up): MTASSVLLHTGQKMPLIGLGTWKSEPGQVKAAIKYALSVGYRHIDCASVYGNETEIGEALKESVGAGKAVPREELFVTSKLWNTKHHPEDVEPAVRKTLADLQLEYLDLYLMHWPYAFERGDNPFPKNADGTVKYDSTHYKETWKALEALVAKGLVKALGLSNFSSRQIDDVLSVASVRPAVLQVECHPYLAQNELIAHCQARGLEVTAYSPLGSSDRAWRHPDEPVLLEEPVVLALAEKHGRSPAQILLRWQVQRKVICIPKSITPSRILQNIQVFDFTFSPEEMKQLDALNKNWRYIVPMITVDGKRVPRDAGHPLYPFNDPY

[4] = Inhibition of Wistar rat lens ALR2 assessed as reduction in NADPH oxidation using D,L-glyceraldehyde as substrate by UV-visible spectrophotometric method
[5] = organism: Homo sapiens; test: Ratio of Ki for recombinant human ALR2 expressed in Escherichia coli BL21 (DE3) assessed as enzyme-substrate-inhibitor complex using varying levels of glutathionyl-4-hydroxytrans-2-nonenal substrate to Ki for human ALR2 expressed in Escherichia coli BL21 (DE3) assessed as enzyme-inhibitor complex using varying levels of glutathionyl-4-hydroxytrans-2-nonenal substrate
[6] = Mixed-type inhibition of recombinant human ALR2 expressed in Escherichia coli BL21 (DE3) assessed as enzyme-substrate-inhibitor complex using varying levels of glutathionyl-4-hydroxytrans-2-nonenal substrate by Hanes-Woolf plot analysis
[7] = organism: Rattus norvegicus; test: Inhibition of ALR2 in Wistar rat lens assessed as reduction in glucose induced-sorbitol accumulation by measuring sorbitol level at 10 uM pretreated for 30 mins followed by glucose challenge measured after 3 hrs by resazurin dye based fluorescence assay (reference value: 1026.51 +/- 157.33)
[8] = Mixed-type inhibition of recombinant human ALR2 expressed in Escherichia coli BL21 (DE3) assessed as enzyme-inhibitor complex using varying levels of glutathionyl-4-hydroxytrans-2-nonenal substrate by Hanes-Woolf plot analysis
[9] = Mixed-type inhibition of recombinant human ALR2 expressed in Escherichia coli BL21 (DE3) assessed as enzyme-substrate-inhibitor complex using varying levels of 4-hydroxy-trans-2-nonenal substrate by Hanes-Woolf plot analysis
[10] = Mixed-type inhibition of recombinant human ALR2 expressed in Escherichia coli BL21 (DE3) assessed as enzyme-inhibitor complex using varying levels of D,L-glyceraldehyde substrate by Hanes-Woolf plot analysis
[11] = Mixed-type inhibition of recombinant human ALR2 expressed in Escherichia coli BL21 (DE3) assessed as enzyme-substrate-inhibitor complex using varying levels of D,L-glyceraldehyde substrate by Hanes-Woolf plot analysis
[12] = Mixed-type inhibition of recombinant human ALR2 expressed in Escherichia coli BL21 (DE3) assessed as enzyme-inhibitor complex using varying levels of 4-hydroxy-trans-2-nonenal substrate by Hanes-Woolf plot analysis
[13] = organism: Rattus norvegicus; test: Inhibition of ALR2 in Wistar rat lens assessed as reduction in glucose induced-sorbitol accumulation by measuring sorbitol level at 50 uM pretreated for 30 mins followed by glucose challenge measured after 3 hrs by resazurin dye based fluorescence assay relative to control; set-up: scale not given: the % may be the effect or the level left
[14] = Mixed-type inhibition of recombinant human ALR2 expressed in Escherichia coli BL21 (DE3) assessed as enzyme-inhibitor complex using varying levels of L-idose substrate by Hanes-Woolf plot analysis
[15] = organism: Rattus norvegicus; test: Inhibition of ALR2 in Wistar rat lens assessed as reduction in glucose induced-sorbitol accumulation by measuring sorbitol level at 2 uM pretreated for 30 mins followed by glucose challenge measured after 3 hrs by resazurin dye based fluorescence assay (reference value: 1026.51 +/- 157.33)
[16] = Mixed-type inhibition of recombinant human ALR2 expressed in Escherichia coli BL21 (DE3) assessed as enzyme-substrate-inhibitor complex using varying levels of L-idose substrate by Hanes-Woolf plot analysis

## O=C1NC(=O)[C@@]2(CCOc3ccc(F)cc32)N1 [SORBINIL]
[1]
  IC50: 250 nM

## COc1cccc(C(=O)c2cc(C(=O)C(F)(F)F)n(-c3cnn(O)c3)c2)c1
[2]
  Ratio IC50: 370
[3]
  IC50: 23700 nM
[4]
  IC50: 64 nM
  pIC50: 7.13

## O=C(c1ccc(F)cc1)c1cc(C(=O)C(F)(F)F)n(-c2cnn(O)c2)c1
[5]
  Ratio Ki: 0.75
[6]
  Ki: 2460 nM
[7]
  Activity: 710 nmol/g
[8]
  Ki: 1860 nM
[9]
  Ki: 2190 nM
[2]
  Ratio IC50: 858
[10]
  Ki: 5270 nM
[11]
  Ki: 820 nM
[3]
  IC50: 67100 nM
[12]
  Ki: 5840 nM
[13]
  Activity: 55%
[14]
  Ki: 8610 nM
[15]
  Activity: 838 nmol/g
[4]
  IC50: 78 nM
  pIC50: 7.11
[16]
  Ki: 700 nM

## CSc1ccc(C(=O)c2cc(C(=O)C(F)(F)F)n(-c3cnn(O)c3)c2)cc1
[5]
  Ratio Ki: 0.75
[6]
  Ki: 930 nM
[7]
  Activity: 613 nmol/g
[8]
  Ki: 690 nM
[9]
  Ki: 390 nM
[2]
  Ratio IC50: 650
[10]
  Ki: 2010 nM
[11]
  Ki: 210 nM
[3]
  IC50: 27900 nM
[12]
  Ki: 2830 nM
[13]
  Activity: 55%
[14]
  Ki: 4550 nM
[15]
  Activity: 889 nmol/g
[4]
  IC50: 43 nM
  pIC50: 7.37
[16]
  Ki: 270 nM

## COc1ccc(C(=O)c2cc(C(=O)C(F)(F)F)n(-c3cnn(O)c3)c2)cc1
[2]
  Ratio IC50: 468
[3]
  IC50: 34200 nM
[4]
  IC50: 73 nM
  pIC50: 7.14

## O=C(c1ccc(-c2ccccc2)cc1)c1cc(C(=O)C(F)(F)F)n(-c2cnn(O)c2)c1
[2]
  Ratio IC50: 190
[3]
  IC50: 14100 nM
[4]
  IC50: 74 nM
  pIC50: 7.19

## O=C(c1ccccc1)c1cc(C(=O)C(F)(F)F)n(-c2cnn(O)c2)c1
[2]
  Ratio IC50: > 413
[3]
  IC50: > 100000 nM
[4]
  IC50: 242 nM
  pIC50: 6.62

## CS(=O)(=O)c1ccc(C(=O)c2cc(C(=O)C(F)(F)F)n(-c3cnn(O)c3)c2)cc1
[2]
  Ratio IC50: 775
[3]
  IC50: 72800 nM
[4]
  IC50: 94 nM
  pIC50: 7.03

## O=C(c1cccc(F)c1)c1cc(C(=O)C(F)(F)F)n(-c2cnn(O)c2)c1
[2]
  Ratio IC50: 339
[3]
  IC50: 42300 nM
[4]
  IC50: 140 nM
  pIC50: 6.85
